Laboratory results from patent publication US6887876B2, “Benzamidine derivatives” (Ortho-McNeil Pharmaceutical, Inc., priority 2000, dated 2005).
pKi: −log10 of the molar value. Where two headings read alike, the source gives them in different places.

How the values were obtained:
δ-opioid receptor [1] = biological target: δ-opioid receptor (Rattus norvegicus, UniProt P33533); assay: Rat brain δ-opioid receptor binding assay ([3H]DPDPE)
μ-opioid receptor = μ-opioid receptor (Rattus norvegicus, UniProt P33535); assay: Rat brain μ-opioid receptor binding assay ([3H]DAMGO)
[2] = test system: acetylcholine bromide-induced abdominal constriction response; assay: Mouse acetylcholine bromide-induced abdominal constriction assay (MAIT); format: in vivo; conditions: po, 0.5 h, 150 μmole/Kg p.o., acetylcholine bromide 5.5 mg/kg i.p. 30 min later
Method: The mouse acetylcholine-induced abdominal constriction assay, as described by Collier et al. in […]., 32: 295-310, 1968 with minor modifications, was used to assess analgesic potency of the compounds of formula (I). The test drugs or appropriate vehicles were administered orally (p.o.) and 30 min later the animal received an intraperitoneal (i.p.) injection of 5.5 mg/kg acetylcholine bromide (Matheson, Coleman and Bell, East Rutherford, N.J.). The mice were then placed in groups of three into glass bell jars and observed for a ten min observation period for the occurrence of an abdominal constriction response (defined as a wave of constriction and elongation passing caudally along the abdominal wall, accompanied by a twisting of the trunk and followed by extension of the hind limbs). For compounds of the present invention, the percent inhibition of this response to a nociceptive stimulus (equated to % analgesia) was calculated as follows: [formula]

δ-opioid receptor [3] = biological target: T1, δ-opioid receptor (Homo sapiens, UniProt P41143); assay: Scintillation screening assay for δ-opioid receptor binding ([3H]bremazocine); conditions: cloned human receptor in CHO cell membranes, [3H]bremazocine 2.4 nM, read-out: δ-Opioid Receptor Binding (% Inhibition), % I @ 25 μM
T1 construct: purchased Receptor Biology, Baltimore, Md; host or cells: CHO cells (membranes)
Excerpt: Scintillation Screening Assay for δ-Opioid Receptor Binding
This is a receptor based screen to detect the competitive binding of test compounds at the δ-opioid receptor against the radioligand, [^3H]bremazocine (S.A.=25.5 Cl/mmol, Dupont/NEN, Cambridge, Mass.). Unknown compounds that bind to the same receptor as the radioligand will compete for the receptor and reduce the amount of radioligand which binds to the receptor. This is detected as a decreased scintillation signal from that particular incubation. The greater affinity an unknown has for the receptor, the larger the observed decrease in […] to the receptor; thus the assay is in the format of an inhibition study.
The receptor is a cloned human cDNA expressed in mammalian CHO cells. Membranes prepared from these cells are purchased from Receptor Biology, Baltimore, Md. The reaction buffer is composed as follows: HEPES (50 mM final), MgCl.6H2O (5 mM final), o-phenanthroline (20 mg/l), aprotinin (10 mg/l), Pefabloc SC (250 mg/l), leupeptin (0.5 mg/l), pepstatin A (0.7 mg/l), trypsin inhibitor (25 mg/l), chymostatin (10 mg/l), pH=7.2. Naloxone, 10 uM, is used to define non-specific binding. The assay employs filtration to capture receptor and bound ligand.
The receptor (membrane) preparation (28 ug protein) is allowed to incubate with the opioid receptor radioligand ([^3H]bremazocine, 2.4 nM) in 96-well plates until equilibrium is reached (>2 hr). Following incubation with the radioligand at 23° C., the well contents are filtered onto 96-well Whatman GF/C filter plates using a Packard cell harvester. Radioligand bound to the receptor also remains on the filter. The filters are rinsed three times with 0.5 mL of physiological saline (0.9% NaCl) to remove any unbound radioligand from the filter. Filters are dried and scintillation fluid is then added to the filters which emits light in proportion to the amount of radioactivity on the filter which is determined using an Packard Topcount scintillation counter. Data are reported as percent inhibition of control binding.

Chain of δ-opioid receptor (Rattus norvegicus, UniProt P33533) (P33533 whole entry): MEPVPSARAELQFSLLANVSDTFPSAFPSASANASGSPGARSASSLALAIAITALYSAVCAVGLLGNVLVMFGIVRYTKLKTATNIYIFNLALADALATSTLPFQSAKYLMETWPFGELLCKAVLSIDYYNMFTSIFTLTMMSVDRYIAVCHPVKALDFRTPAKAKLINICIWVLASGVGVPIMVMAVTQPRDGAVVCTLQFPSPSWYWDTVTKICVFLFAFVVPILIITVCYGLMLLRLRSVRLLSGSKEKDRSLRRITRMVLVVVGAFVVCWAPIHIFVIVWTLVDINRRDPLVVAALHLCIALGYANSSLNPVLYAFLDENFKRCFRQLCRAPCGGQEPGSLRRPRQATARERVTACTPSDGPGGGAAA
Chain of μ-opioid receptor (P33535 whole entry): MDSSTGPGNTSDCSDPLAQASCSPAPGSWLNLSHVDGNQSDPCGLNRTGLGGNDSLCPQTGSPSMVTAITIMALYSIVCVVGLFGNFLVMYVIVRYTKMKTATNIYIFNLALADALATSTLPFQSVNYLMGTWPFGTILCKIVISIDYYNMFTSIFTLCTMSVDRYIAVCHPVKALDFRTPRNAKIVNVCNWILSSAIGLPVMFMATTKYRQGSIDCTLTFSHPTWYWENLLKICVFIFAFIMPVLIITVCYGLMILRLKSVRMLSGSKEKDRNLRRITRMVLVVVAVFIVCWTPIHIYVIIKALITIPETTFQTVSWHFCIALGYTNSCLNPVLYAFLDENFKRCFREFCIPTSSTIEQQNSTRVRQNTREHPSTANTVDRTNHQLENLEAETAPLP
T1 sequence (P41143 whole entry): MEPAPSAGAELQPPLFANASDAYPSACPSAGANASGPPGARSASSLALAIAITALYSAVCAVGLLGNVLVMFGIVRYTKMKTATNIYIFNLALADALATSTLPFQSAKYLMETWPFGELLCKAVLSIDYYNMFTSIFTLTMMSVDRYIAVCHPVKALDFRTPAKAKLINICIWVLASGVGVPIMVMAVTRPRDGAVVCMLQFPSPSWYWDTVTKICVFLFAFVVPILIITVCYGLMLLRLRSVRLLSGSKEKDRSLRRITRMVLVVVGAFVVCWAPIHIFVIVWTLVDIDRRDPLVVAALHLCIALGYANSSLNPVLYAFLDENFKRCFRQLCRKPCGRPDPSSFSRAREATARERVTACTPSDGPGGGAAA

| SMILES | Ki (δ-opioid receptor [1]; rat forebrain preparation, [3H]DPDPE, 25° C., read-out: δ-Opioid Receptor Binding (Ki nM)) | Ki (μ-opioid receptor; rat forebrain preparation, [3H]DAMGO, 25° C., read-out: μ-Opioid Receptor Binding (Ki nM)) | inhibition in vivo at 150 µmol/kg [2] | inhibition at 25 µM (δ-opioid receptor [3]) | pKi (δ-opioid receptor [1]) | pKi (μ-opioid receptor) |
| --- | --- | --- | --- | --- | --- | --- |
| C=CCN1C[C@H](C)N(/C(=N/c2ccccc2)c2ccc(C(=O)N(CC)CC)cc2)C[C@H]1C [Compound 16, 4-[(E)-[(2S,5R)-2,5-dimethyl-4-(2-propenyl)piperazinyl](phenylimino)methyl]-N,N-diethyl-benzamide] | 170 nM | 4330 nM | 50% |  |  |  |
| CCN1CCN(C(=Nc2ccccc2)c2ccc(C(=O)N(CC)CC)cc2)CC1 [Compound 1, N,N-diethyl-4-[(4-ethyl-1-piperazinyl)(phenylimino)methyl]-benzamide] |  |  | 40% | 106% | 7.80 | < 5.00 |
| CCCN(CCC)C(=O)c1ccc(C(=Nc2cccc(Br)c2)N2CCN(CC)CC2)cc1 [Compound 5, 4-[[(3-bromophenyl)imino](4-ethyl-1-piperazinyl)methyl]-N,N-dipropyl-benzamide] |  |  | 14.3% | 100% | 7.41 | 5.26 |
| CCN1CCN(C(=Nc2cccc(Br)c2)c2ccc(C(=O)N(CC)CC)cc2)CC1 [Compound 4, 4-[[(3-bromophenyl)imino](4-ethyl-1-piperazinyl)methyl]-N,N-diethyl-benzamide] |  |  | 7.7% | 100% | 7.24 | < 5.00 |
| CCN1CCN(C(=Nc2ccccc2Cl)c2ccc(C(=O)N(CC)CC)cc2)CC1 [Compound 6, 4-[[(2-chlorophenyl)imino](4-ethyl-1-piperazinyl)methyl]-N,N-diethyl-benzamide] |  |  | 20% | 103% | 7.04 | < 5.00 |
| CCN(CC)C(=O)c1ccc(C(=Nc2ccccc2Cl)N2CCN(Cc3ccccc3)CC2)cc1 [Compound 20, 4-[[(2-chlorophenyl)imino][4-(phenylmethyl)-1-piperazinyl]methyl]-N,N-diethyl-benzamide] |  |  | 23.1% |  | 7.93 | < 5.00 |
| C=CCN1CCN(C(=Nc2ccccc2Cl)c2ccc(C(=O)N(CC)CC)cc2)CC1 [Compound 19, 4-[[(2-chlorophenyl)imino][4-(2-propenyl)-1-piperazinyl]methyl]-N,N-diethyl-benzamide] |  |  | 40% |  | 7.69 | 5.12 |
| CCN1CCN(C(=Nc2cccc(Cl)c2)c2ccc(C(=O)N(CC)CC)cc2)CC1 [Compound 3] |  |  | 40% | 103% | 7.20 | < 5.00 |
| CCN1CCN(C(=Nc2cccc(OC)c2)c2ccc(C(=O)OC)cc2)CC1 [Compound 47, 4-[(4-ethyl-1-piperazinyl)[(3-methoxyphenyl)imino]methyl]-benzoic acid methyl ester] |  |  | 26.7% | 91% |  |  |
| CCN1CCN(C(=Nc2ccccc2)c2ccc(C(=O)OC)cc2)CC1 [Compound 46, 4-[(4-ethyl-1-piperazinyl)(phenylimino)methyl]-benzoic acid methyl ester] |  |  | 26.7% | 94% |  |  |
| CCN1CCN(C(=Nc2ccccc2F)c2ccc(C(=O)N(CC)CC)cc2)CC1 [Compound 10, N,N-diethyl-4-[(4-ethyl-1-piperazinyl)[(2-fluorophenyl)imino]methyl]-benzamide] |  |  | 26.7% | 102% | 6.93 | < 5.00 |
| CCCN(CCC)C(=O)c1ccc(C(=Nc2cccc(F)c2)N2CCN(CC)CC2)cc1 [Compound 8, 4-[(4-ethyl-1-piperazinyl)[(3-fluorophenyl)imino]methyl]-N,N-dipropyl-benzamide] |  |  | 7.1% | 97% | 7.22 | 5.16 |
| CCN(CC)C(=O)c1ccc(C(=Nc2ccccc2Cl)N2CCN(CCc3cccs3)CC2)cc1 [Compound 21, 4-[[(2-chlorophenyl)imino][4-[2-(2-thienyl)ethyl]-1-piperazinyl]methyl]-N,N-diethyl-benzamide] |  |  | 40% |  | 7.02 | < 5.00 |
